Laboratory results published in US8815946B2, “Inhibition of proliferation and fibrotic response of activated corneal stromal cells” (University of Pittsburgh—of the Commonwealth System of …, priority 2008, dated 2014).
“Also recorded” adds a separate entry of the source.

Key:
[1] = test system: Ki67; test: Ki67 staining of activated rabbit corneal keratocytes; assay type: cell-based; conditions: bFGF (40 ng/ml)+HS (5 μg/ml), 15 mM EP, two days
Experimental: FIGS. 18A-18B. Rabbit corneal keratocytes were activated with bFGF (40 ng/ml)+HS (5 μg/ml) without EP (FIG. 18A) or with 15 mM EP (FIG. 18B) and after two days the cells were triple stained with anti-Ki67 antibodies (yellow), phalloidin (red, actin filaments) and DAPI (blue, nucleus).
(§1) As described in Example 1, corneal stromal cells were isolated from rabbit corneas and cultured using the same procedures. The keratocytes in serum free media were treated with b-FGF (40 ng/ml)+HS (5 μg/ml) with or without 15 mM EP or 1, 2.5 or 5 mM following EP derivatives: 2-oxopropionic acid 3-methoxyphenyl ester, 2-oxopropionic acid 2-ethoxyethyl ester, 2-oxopropionic acid 2-chloroethyl ester, 2-oxopropionic acid isopropyl ester, 2-oxopropionic acid butyl ester, 2-oxopropionic acid p-tolyl ester, 2-oxopropionic acid tert-butyl ester. Two days following the treatments, the cells were fixed and stained for Ki67 (a nuclear antigen expressed during the G1/S or S phase of the cell cycle) as described supra. The relative levels of the expression of specific proteins were analyzed by Western blot analyses of the cell lysates as described supra.

[2] = test system: alpha-smooth muscle actin; test: Western blot of TGF-β1 activated rabbit corneal keratocytes: alpha-smooth muscle actin; assay type: cell-based; conditions: TGF-β1 (10 ng/ml)+1% FBS, two days, compared to controls with no treatment, listed as EP
Experimental: FIGS. 19A and 19B. Western blot analyses: Rabbit corneal keratocytes were isolated and cultured in serum-free DMEM/F12 into 60 mm tissue culture dishes. After 24 hrs of incubation, the media were replaced with DMEM/F12 medium containing TGF-β1(10 ng/ml)+1% FBS without (control) or with EP or EP-derivatives for two days. The cells were extracted in RIPA buffer and the extracts containing 5 μg of total proteins were loaded per lane for Western blot analysis.
Keratocytes or fibroblasts grown under different culture conditions were extracted in RIPA buffer (9.1 mM dibasic sodium phosphate, 1.7 mM monobasic sodium phosphate, 150 mM NaCl, pH, 7.4, 1% Nonidet P-40, 0.5% sodium deoxycholate, 0.1% SDS, 0.03 TIU/mL aprotinin, 1 mM sodium orthovanadate, and 100 μg/mL phenylmethylsulfonyl fluoride (PMSF)). Aliquots of cell extracts containing 50 or 100 μg protein were subjected to SDS-PAGE. Protein bands on SDS-PAGE were electrophoretically transferred to IMMOBILON-P™ membrane (Millipore Corp., Bedford, Mass.), stained with 0.1% Coomassie blue 250 in 40% methanol/1% acetic acid for 1 minute, destained one to three times with 50% methanol/1% acetic acid, scanned for densitometric comparisons of relative concentrations of proteins per lane, destained with methanol, and subjected to Western blot analysis. Immunoreactive bands were detected using chemiluminescence Western chemiluminescence reagents.
as §1, with “Two days following the treatments, the cells were fixed and stained for Ki67 (a nuclear antigen expressed during the G1/S or S phase of the cell cycle) as described supra.” left out

CCOC(=O)C(C)=O [ethyl pyruvate]
Ki67 positive cells (staining, qualitative) [1]: only a few Ki67 positive cells
alpha-smooth muscle actin levels (Western blot) [2]: reduced expression; also recorded: reduced levels
